{"source": "patent US6812235B2", "about": "“Beta-alanine derivatives and their use as receptor anatgonists” (Fujisawa Pharmaceutical Co., Ltd., priority 2000, dated 2004)", "system": "platelet aggregation induced by ADP in platelet rich plasma (PRP)", "assay": "Effect on platelet aggregation induced by adenosine diphosphate (ADP)", "type": "cell-based", "conditions": "human PRP 3×10^8 platelets/ml; test compound in water, 2 minutes at 37° C.; ADP final 2.5 μM; aggregometer; read-out: IC50 (inhibition of ADP-induced platelet aggregation)", "protocol": "Test: Effect on Platelet Aggregation Induced by Adenosine Diphosphate (ADP)\nPlatelet rich plasma (PRP) which contains 3×10^8 platelets/ml was prepared from human blood. To the 225 μl of PRP, 25 μl of the solution of the test compound in water was added, and then stirred for 2 minutes at 37° C. To the solution 5 μl of ADP (final 2.5 μM) was added as an aggregation inducer. Aggregation was measured by using an aggregometor (NBS HEMA-TRACER 801). Activity of […] (test compound) was expressed as IC50 value, i.e., dose required for […] of platelet aggregation.", "data": [{"smiles": "COC(=O)C(=O)N[C@@H](CNC(=O)[C@@H]1CCCN(C(=O)CCC2CCNCC2)C1)C(=O)O", "note": "[Example 25, N-[(3R)-1-{3-(4-piperidyl)-propionyl}-3-piperidylcarbonyl]-2(S)-methoxyoxalylamino-β-alanine]", "values": [{"measurement": "IC50", "result": 85, "unit": "nM"}]}]}
